According to BindingDB's records for doi:10.1016/j.bmcl.2014.06.076 (Genentech, 2014):

Target: L-lactate dehydrogenase A chain (Homo sapiens, UniProt P00338)
Experiment: Inhibition of human recombinant carboxy-terminal His-tagged LDHA by UV endpoint assay

N#Cc1ccccc1SC1=C(O)CC(c2c(Cl)cccc2Cl)CC1=O (centres undefined)
IC50: > 100 µM

N#Cc1ccccc1SC1=C(O)CC(c2c(Cl)cccc2Br)CC1=O (centres undefined)
IC50: > 100 µM

O=C1CC(c2ccccc2Cl)CC(O)=C1Sc1ccccc1Cl (centres undefined)
IC50: > 100 µM

O=C1CC(c2cccc(Cl)c2)CC(O)=C1Sc1ccccc1Cl (centres undefined)
IC50: > 100 µM

O=C1CC(c2ccc(Cl)cc2)CC(O)=C1Sc1ccccc1Cl (centres undefined)
IC50: > 100 µM

COc1ccc(C2CC(=O)C(Sc3ccccc3Cl)=C(O)C2)cc1 (centres undefined)
IC50: > 100 µM

O=C1CC(c2c(F)cccc2Cl)CC(O)=C1Sc1ccccc1Cl (centres undefined)
IC50: > 100 µM

O=C1CC(c2c(Cl)cccc2Br)CC(O)=C1Sc1ccccc1Cl (centres undefined)
IC50: > 100 µM

O=C1CC(c2c(Cl)cccc2C(F)(F)F)CC(O)=C1Sc1ccccc1Cl (centres undefined)
IC50: > 100 µM

O=C1CC(c2c(F)cccc2F)CC(O)=C1Sc1ccccc1Cl (centres undefined)
IC50: > 100 µM

Cc1cc(C)c(SC2=C(O)CC(c3ccccc3)CC2=O)nc1C#N (centres undefined)
IC50: 5.6 µM

O=C1CC(c2ccccc2)CC(O)=C1Sc1ncc[nH]1 (centres undefined)
IC50: 0.87 µM

CSc1nnc(SC2=C(O)CC(c3ccccc3)CC2=O)s1 (centres undefined)
IC50: 7.4 µM

Cc1ccc2nc(SC3=C(O)CC(c4ccccc4)CC3=O)[nH]c2c1 (centres undefined)
IC50: 2.1 µM

O=C1CC(c2c(Cl)ccc(Br)c2Cl)CC(O)=C1Sc1ccccc1Cl (centres undefined)
IC50: > 100 µM

O=C1CC(c2c(Br)cccc2Br)CC(O)=C1Sc1ccccc1Cl (centres undefined)
IC50: > 100 µM

Cc1cccc(C)c1C1CC(=O)C(Sc2ccccc2Cl)=C(O)C1 (centres undefined)
IC50: > 100 µM

O=C1CC(c2c(C(F)(F)F)cccc2C(F)(F)F)CC(O)=C1Sc1ccccc1Cl (centres undefined)
IC50: > 100 µM

N#Cc1ccccc1SC1=C(O)CC(c2ccccc2Cl)CC1=O (centres undefined)
IC50: > 100 µM

N#Cc1ccccc1SC1=C(O)CC(c2cccc(Cl)c2)CC1=O (centres undefined)
IC50: > 100 µM

N#Cc1ccccc1SC1=C(O)CC(c2ccc(Cl)cc2)CC1=O (centres undefined)
IC50: > 100 µM

N#Cc1ccccc1SC1=C(O)CC(c2c(Cl)cccc2C(F)(F)F)CC1=O (centres undefined)
IC50: > 100 µM

Cc1cccc(C)c1C1CC(=O)C(Sc2ccccc2C#N)=C(O)C1 (centres undefined)
IC50: > 100 µM

N#Cc1ccccc1SC1=C(O)CC(c2c(Br)cccc2Br)CC1=O (centres undefined)
IC50: > 100 µM
